Where two headings read alike, the source gives them in different places.
Key:
in vivo = conditions: male, Sprague Dawley (CD), rat, lung
[1] = Specific surface area analysis (BET); conditions: for SSA: BET method
[2] = format: physicochemical; conditions: for d50: median particle size; for d10 / d90: particle size; for d10: 10th percentile; for d90: 90th percentile
Protocol: The suspensions were sonicated in a bath or with a sonic probe prior to analysis to deagglomerate and form a homogeneous suspension. Particle size was analyzed by both light obscuration and laser diffraction methods.

[3] = rat, i.v. 5 mg/kg
[4] = Example 1 processed vs raw material

O=C(O)c1cn(C2CC2)c2cc(N3CCNCC3)c(F)cc2c1=O [Ex. 2 ciprofloxacin, 1-cyclopropyl-6-fluoro-4-oxo-7-(piperazin-1-yl)-1,4-dihydroquinoline-3-carboxylic acid]
concentration at 0.5 h (in vivo; inhaled, 3 mg/kg): 153000 ng/g
concentration at 6 h (in vivo; inhaled, 3 mg/kg): 48400 ng/g
concentration at 12 h (in vivo; inhaled, 3 mg/kg): 12800 ng/g
concentration at 24 h (in vivo; inhaled, 3 mg/kg): 607 ng/g

Cl.O=C(O)c1cn(C2CC2)c2cc(N3CCNCC3)c(F)cc2c1=O [Example 1 processed, 1-cyclopropyl-6-fluoro-4-oxo-7-(piperazin-1-yl)-1,4-dihydroquinoline-3-carboxylic acid hydrochloride salt]
SSA ([1]; hydrochloride salt): 19.42 m^2/g
% Change of SSA [1, 4]: +153%
% Change of d10 [2, 4]: −90%
% Change of d50 [2, 4]: −94%
% Change of d90 [2, 4]: −94%
d50 ([2]; hydrochloride salt): 1.37 μm
d10 ([2]; hydrochloride salt): 0.61 μm
d90 ([2]; hydrochloride salt): 3.64 μm

O=C(O)c1cn(C2CC2)c2cc(N3CCNCC3)c(F)cc2c1=O [Example 2 processed Batch 3, 1-cyclopropyl-6-fluoro-4-oxo-7-(piperazin-1-yl)-1,4-dihydroquinoline-3-carboxylic acid]
SSA [1]: 12.9 m^2/g
d50 [2]: 3.26 μm
d10 [2]: 1.19 μm
d90 [2]: 6.65 μm

O=C(O)c1cn(C2CC2)c2cc(N3CCNCC3)c(F)cc2c1=O [Ciprofloxacin Raw material, 1-cyclopropyl-6-fluoro-4-oxo-7-(piperazin-1-yl)-1,4-dihydroquinoline-3-carboxylic acid, reference compound]
SSA [1]: 11.8 m^2/g
d50 [2]: 14.8 μm
d10 [2]: 1.44 μm
d90 [2]: 244 μm

Cl.O=C(O)c1cn(C2CC2)c2cc(N3CCNCC3)c(F)cc2c1=O [Ciprofloxacin hydrochloride Raw material, 1-cyclopropyl-6-fluoro-4-oxo-7-(piperazin-1-yl)-1,4-dihydroquinoline-3-carboxylic acid hydrochloride salt, reference compound]
SSA ([1]; hydrochloride salt): 7.68 m^2/g
d50 ([2]; hydrochloride salt): 22.7 μm
d10 ([2]; hydrochloride salt): 6.05 μm
d90 ([2]; hydrochloride salt): 56.0 μm

O=C(O)c1cn(C2CC2)c2cc(N3CCNCC3)c(F)cc2c1=O [ciprofloxacin, reference compound]
Lung concentration ([3]; 12 hours): BQL*
Lung concentration ([3]; 24 hours): BQL
concentration at 0.5 h (in vivo; iv, 5 mg/kg): 843 ng/g
concentration at 6 h (in vivo; iv, 5 mg/kg): 113 ng/g

O=C(O)c1cn(C2CC2)c2cc(N3CCNCC3)c(F)cc2c1=O [Example 2 processed Batch 2, 1-cyclopropyl-6-fluoro-4-oxo-7-(piperazin-1-yl)-1,4-dihydroquinoline-3-carboxylic acid]
SSA [1]: 14.3 m^2/g
d50 [2]: 5.57 μm
d10 [2]: 1.79 μm
d90 [2]: 13.3 μm

O=C(O)c1cn(C2CC2)c2cc(N3CCNCC3)c(F)cc2c1=O [Example 2 processed Batch 1, 1-cyclopropyl-6-fluoro-4-oxo-7-(piperazin-1-yl)-1,4-dihydroquinoline-3-carboxylic acid]
SSA [1]: 7.68 m^2/g
d50 [2]: 4.63 μm
d10 [2]: 1.62 μm
d90 [2]: 9.32 μm
